Data as given in article PMC7926793, “Synthesis and Biological Evaluation of 1-(Diarylmethyl)-1H-1,2,4-triazoles and 1-(Diarylmethyl)-1H-imidazoles as a Novel Class of Anti-Mitotic Agent for Activity in Breast Cancer” (Pharmaceuticals, 2021).

Assays:
[1] = toxicity evaluation, alamarBlue assay; type: cell-based, human; conditions: human, MCF-10A cells; for viability at 24 h, 1 µM: read-out: cell viability
[2] = tested on: tubulin (microtubule network) in MCF-7 cells; test: immunofluorescence confocal microscopy of microtubule network; type: cell-based, human; conditions: 10 μM, 16 h
Protocol: Confocal microscopy was used to study the effects of drug treatment on MCF-7 cytoskeleton. For immunofluorescence, MCF-7 cells were seeded at 1 × 10^5 cells/mL on eight chamber glass slides (BD Biosciences). […] Following treatment, cells were gently washed in PBS, fixed for 20 min with 4% paraformaldehyde in PBS, and permeabilised in 0.5% Triton X-100. Following washes in PBS containing 0.1% Tween (PBST), cells were blocked in 5% bovine serum albumin diluted in PBST. […] Following washes in PBST, the cells were mounted in Ultra Cruz Mounting Media (Santa Cruz Biotechnology, Santa Cruz, CA) containing 4,6-diamino-2-phenolindol dihydrochloride (DAPI). Images were captured by Leica SP8 confocal microscopy with Leica application suite X software. All images in each experiment were collected on the same day using identical parameters. Experiments were performed on three independent occasions.

RPMI-8226 = test: NCI 60 cell line screen (Leukemia); type: cell-based, human; conditions: for GI50: Homo sapiens, RPMI-8226, NCI 5 dose assay; for Growth percentage: RPMI-8226, single dose 10 µM
COLO 205 = test: NCI 60 cell line screen (Colon Cancer); type: cell-based, human; conditions: for Growth percentage: COLO 205, single dose 10 µM; for GI50: Homo sapiens, COLO 205, NCI 5 dose assay
HCT-15 = test: NCI 60 cell line screen (Colon Cancer); type: cell-based, human; conditions: for Growth percentage: HCT-15, single dose 10 µM; for GI50: Homo sapiens, HCT-15, NCI 5 dose assay
HT29 = test: NCI 60 cell line screen (Colon Cancer); type: cell-based, human; conditions: for Growth percentage: HT29, single dose 10 µM; for GI50: Homo sapiens, HT-29, HT29, NCI 5 dose assay
SF539 = test: NCI 60 cell line screen (CNS Cancer); type: cell-based, human; conditions: for GI50: Homo sapiens, SF-539, SF539, NCI 5 dose assay; for Growth percentage: SF539, single dose 10 µM
U251 (AC in Table 3) = test: NCI 60 cell line screen (CNS Cancer); type: cell-based, human; conditions: for GI50: Homo sapiens, U-251, cell line printed AC, NCI 5 dose assay; for Growth percentage: U251, single dose 10 µM
PC-3 = test: NCI 60 cell line screen (Prostate cancer); type: cell-based, human; conditions: for GI50: Homo sapiens, PC-3, NCI 5 dose assay; for Growth percentage: PC-3, single dose 10 µM
SK-MEL-2 = test: NCI 60 cell line screen (Melanoma); type: cell-based, human; conditions: for GI50: Homo sapiens, SK-MEL-2, NCI 5 dose assay; for Growth percentage: SK-MEL-2, single dose 10 µM
OVCAR-8 = test: NCI 60 cell line screen (Ovarian Cancer); type: cell-based, human; conditions: for GI50: Homo sapiens, OVCAR-8, NCI 5 dose assay; for Growth percentage: OVCAR-8, single dose 10 µM
A498 = test: NCI 60 cell line screen (Renal Cancer); type: cell-based, human; conditions: for Growth percentage: A498, single dose 10 µM; for GI50: Homo sapiens, A498, NCI 5 dose assay
CAKI-1 = test: NCI 60 cell line screen (Renal Cancer); type: cell-based, human; conditions: for Growth percentage: CAKI-1, single dose 10 µM; for GI50: Homo sapiens, CAKI-1, NCI 5 dose assay
SN12C = test: NCI 60 cell line screen (Renal Cancer); type: cell-based, human; conditions: for GI50: Homo sapiens, NCI 5 dose assay; for Growth percentage: single dose 10 µM
CYP1A1 = target: T1, CYP1A1 (Homo sapiens, UniProt P04798); test: cytochrome P450 assay (DBF fluorescence); conditions: for IC50: IC50 CYP1A1; for inhibition at 25 min, 20 µg/mL: human, recombinant CYP1A1, pH 7.4, probe dibenzylfluorescein (DBF), 2.0 μM
T1 sequence (P04798 1-512): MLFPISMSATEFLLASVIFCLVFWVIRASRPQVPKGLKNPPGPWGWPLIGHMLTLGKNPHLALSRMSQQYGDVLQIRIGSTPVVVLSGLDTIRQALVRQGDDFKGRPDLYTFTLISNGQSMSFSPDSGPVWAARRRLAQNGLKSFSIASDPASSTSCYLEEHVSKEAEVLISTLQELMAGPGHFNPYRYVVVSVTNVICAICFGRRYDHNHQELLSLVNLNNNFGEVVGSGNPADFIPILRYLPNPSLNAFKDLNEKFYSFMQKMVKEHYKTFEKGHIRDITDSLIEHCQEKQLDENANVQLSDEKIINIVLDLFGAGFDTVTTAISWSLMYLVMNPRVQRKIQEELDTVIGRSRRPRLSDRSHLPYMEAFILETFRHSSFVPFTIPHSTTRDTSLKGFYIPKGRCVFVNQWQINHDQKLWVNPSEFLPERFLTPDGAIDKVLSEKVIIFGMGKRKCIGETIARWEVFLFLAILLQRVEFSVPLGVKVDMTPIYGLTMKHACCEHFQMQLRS

[3] = HPLC stability study in phosphate buffers; type: physicochemical
Protocol: Stability studies for compounds 21l and 24 were performed by analytical HPLC using a Symmetry® column (C18, […], 4.6 × 150 mm), a Waters 2487 Dual Wavelength Absorbance detector, a Waters 1525 binary HPLC pump, and a Waters 717 plus Autosampler (Waters Corporation, Milford, MA, USA). Samples were detected at λ 254 nm using acetonitrile (70%)/water (30%) as the mobile phase over 15 min and a flow rate of 1 mL/min. Stock solutions of the compounds are prepared using 10 mg of compounds 21l and 24 in 10 mL of mobile phase (1 mg/mL). Phosphate buffers at the desired pH values (4, 7.4, and 9) were prepared following the British Pharmacopoeia monograph 2020. Then, 30 μL of stock solution was diluted with 1 mL of appropriate buffer, shaken, and injected immediately. Samples were withdrawn and analysed at time intervals of t = 0 min, 5 min, 30 min, 60 min, and hourly for 24 h.

SR = test: NCI 60 cell line screen (Leukemia); type: cell-based, human; conditions: for Growth percentage: single dose 10 µM
[4] = read-out: percentage of viable cells
[5] = 72 h, read-out: percentage of viable cells
[6] = 10 μM, read-out: percentage of viable cells

SMILES	viability at 48 h, 0.4 µM [1]	viability at 48 h, 0.5 µM [1]	viability at 24 h, 1 µM [1]	viability at 48 h, 1 µM [1, 4]	viability at 72 h, 1 µM [1, 5]	Growth percentage (RPMI-8226)	Growth percentage (COLO 205)	Growth percentage (HCT-15)	Growth percentage (HT29)	Growth percentage (SF539)	Growth percentage (U251 (AC in Table 3))	Growth percentage (PC-3)	Growth percentage (SK-MEL-2)	Growth percentage (OVCAR-8)	Growth percentage (A498)	Growth percentage (CAKI-1)	Growth percentage (SN12C)	IC50 (CYP1A1)	inhibition at 25 min, 20 µg/mL (CYP1A1)	Growth percentage (SR)	other results
COc1ccc(C(c2cc(OC)c(OC)c(OC)c2)n2cncn2)cc1O (centres unmarked) [19e, 5-((1H-1,2,4-Triazol-1-yl)(3,4,5-Trimethoxyphenyl)methyl)-2-Methoxyphenol]	~100%	~100%	99%	> 94%	> 80%	20.71%	-1.65%	10.04%	5.30%	9.34%	15.32%	21.20%	55.94%	13.43%	9.66%	40.43%	39.32%	> 53800 nM	18.1%	–	viability at 48 h, 10 µM [1, 6]: ~30%; effect on microtubule network of MCF-7 cells [2]: disorganised microtubule networks; GI50 (RPMI-8226): 452 nM; GI50 (COLO 205): 332 nM; GI50 (HCT-15): 438 nM; GI50 (HT29): 330 nM; GI50 (SF539): 300 nM; GI50 (U251 (AC in Table 3)): 446 nM; GI50 (PC-3): 431 nM; GI50 (SK-MEL-2): 361 nM; GI50 (OVCAR-8): 1140 nM; GI50 (A498): 324 nM; GI50 (CAKI-1): 567 nM; GI50 (SN12C): 853 nM
COc1ccc(C(c2cc(OC)c(OC)c(OC)c2)n2ccnc2)cc1O (centres unmarked) [21l, 5-((1H-Imidazol-1-yl)(3,4,5-Trimethoxyphenyl)Methyl)-2-Methoxyphenol]	~100%	~100%	73%	64%	> 80%	18.86%	-9.99%	7.70%	5.94%	9.52%	15.52%	20.69%	43.54%	10.28%	8.04%	41.26%	37.55%	> 54000 nM	18.4%	8.48%	viability at 48 h, 10 µM [1, 6]: ~30%; effect on microtubule network of MCF-7 cells [2]: disorganised microtubule networks; compound remaining (HPLC) ([3]; pH 4, 24 h): 90%; GI50 (RPMI-8226): 385 nM; GI50 (SR; Homo sapiens, NCI 5 dose assay): 182 nM; GI50 (COLO 205): 361 nM; GI50 (HCT-15): 264 nM; GI50 (HT29): 312 nM; GI50 (SF539): 217 nM; GI50 (U251 (AC in Table 3)): 391 nM; GI50 (PC-3): 384 nM; GI50 (SK-MEL-2): 324 nM; GI50 (OVCAR-8): 450 nM; GI50 (A498): 304 nM; GI50 (CAKI-1): 681 nM; GI50 (SN12C): 910 nM
COc1ccc(C(c2cc(OC)c(OC)c(OC)c2)N2CCCC2)cc1 (centres unmarked) [25g]	–	–	–	–	–	97.42%	71.23%	52.67%	40.59%	95.69%	77.78%	63.89%	55.67%	95.58%	31.23%	77.46%	108.47%	–	–	23.87%	–
COc1ccc(C(c2cc(OC)c(OC)c(OC)c2)N2CCCCC2)cc1 (centres unmarked) [26b, 1-((4-Methoxyphenyl)(3,4,5-Trimethoxyphenyl)Methyl)Piperidine]	–	–	–	–	–	41.20%	16.14%	20.63%	7.93%	27.71%	26.12%	25.08%	22.02%	50.11%	7.32%	29.22%	54.32%	–	–	18.46%	–
COc1ccc(C(c2cc(OC)c(OC)c(OC)c2)N2CCN(Cc3ccccc3)CC2)cc1 (centres unmarked) [27d]	–	–	–	–	–	84.15%	61.78%	47.63%	28.31%	81.24%	62.75%	59.28%	27.38%	92.58%	51.90%	66.73%	88.36%	–	–	16.10%	–
COc1ccc(C(c2cc(OC)c(OC)c(OC)c2)n2nccn2)cc1O (centres unmarked) [compound 24]	–	–	–	–	71%	–	–	–	–	–	–	–	–	–	–	–	–	> 53800 nM	12.8%	–	viability at 72 h, 0.1 µM ([1]; 0.1 μM, 72 h, read-out: percentage of viable cells): 96%; viability at 72 h, 10 µM ([1]; 10 μM, 72 h, read-out: percentage of viable cells): 61%; compound remaining (HPLC) ([3]; pH 4, 24 h): 65%; compound remaining (HPLC) ([3]; pH 7.4, 24 h): 50%; compound remaining (HPLC) ([3]; pH 9, 24 h): 60%
